The record followed here is patent US20260240871A1, “PHARMACEUTICAL COMPOSITION FOR PREVENTION OR TREATMENT OF AGE-RELATED MUSCULOSKELETAL DISORDERS” (SEOUL NATIONAL UNIVERSITY R&DB FOUNDATION, priority 2023, published 2026).

In assay [1] the test system is DNA damage-induced senescent cells (SEN) and oncogene-induced senescent cells (SEN (OIS)) of human diploid fibroblasts (IMR90, BJ). In words: SASP factor and senescence marker gene expression (qRT-PCR) in senescent cell models. The assay is classed as cell-based. To be noted: for expression of CDKN2A or CDKN1A: senescent cells; for expression of SASP genes (IL1A, IL1B): senescent cells (SEN), cholesterol depletion, cholesterol stimulation or lovastatin treatment. On the procedure: (§1) DNA damage-induced senescence was induced in human diploid fibroblasts (IMR90, BJ) by treatment with ionizing radiation (12 Gy) or bleomycin (10 μg/ml, for 24 hours). Specifically, IMR90 and BJ cells expressing hTERT (DNA damage-induced senescence; SEN), IMR90 cells co-expressing hTERT and H-RasV12 [oncogene-induced senescence; SEN (OIS)], and replication-exhausted [replicative senescent cells; SEN (REP)] IMR90 cells were prepared. Normal proliferating cells (PRO) were used as the control.
To investigate the functional consequences of age-related changes in cholesterol levels, cellular cholesterol was depleted using methyl-β-cyclodextrin (MβCD), and multiple senescence markers were examined during DNA damage-induced aging, including senescence-associated β-galactosidase (SA-β-Gal) activity, cell cycle arrest, and expression of senescence-associated secretory phenotype (SASP) factors.
To specifically confirm the effect of increased expression of lysosomal ABCA1 on SASP activity, experiments were conducted using probucol, an ABCA1 modulator that has been reported to limit its localization to intracellular compartments including lysosomes, and glyburide, a broad-spectrum inhibitor of the ABC transport protein family that promotes channel closure of ABC transporters. The prepared senescent cell models were treated with probucol (10 μM) and/or glyburide (75 μM), and immunoblotting analysis was performed on lysosome immunoprecipitates (LysoIP).
Background: Real-time PCR tracks product formation cycle by cycle.

For assay [2], the target named is T1, lysosomal ABCA1 (Homo sapiens, UniProt O95477).
T1 construct: endogenous ABCA1 was abundantly present in lysosomes; endogenous in cells; host or cells: senescent human diploid fibroblasts (IMR90, BJ; hTERT-expressing, DNA damage-induced senescence)
In words: immunoblotting of lysosome immunoprecipitates (LysoIP) in senescent cells. The assay is classed as cell-based. To be noted: senescent cells (SEN); probucol 10 μM, glyburide 75 μM. As to the method: as §1, with “control. It was analyzed how ABCA1, which mediates cholesterol transport at the plasma membrane, is involved in cholesterol accumulation. […] The prepared senescent cell models were treated with probucol (10 μM) and/or glyburide (75 μM), and immunoblotting analysis was performed on lysosome immunoprecipitates (LysoIP).” for “control.”
(Immunoblotting shows a protein as a band on a membrane.)

Assay [3] deals with male mice subjected to DMM surgery (post-traumatic osteoarthritis). Kind of assay: post-traumatic osteoarthritis progression after DMM surgery, intra-articular injection. Format: in vivo, mouse. To be noted: for osteoarthritis progression / cartilage destruction in knee joints (Safranin O staining) / expression levels of SASP factors (IL6, MMP13) and senescence markers (p16, nuclear HMGB1) / osteoarthritis-related pain symptoms / pain indicators: intra-articular; for osteoarthritis progression / cartilage destruction in knee joints (Safranin O staining): probucol 200 μM 10 μl weekly for 6 weeks, hydrogel with 3 mM glyburide 10 μl every 10 days for 10 weeks; for expression levels of SASP factors (IL6, MMP13) and senescence markers (p16, nuclear HMGB1) / osteoarthritis-related pain symptoms / pain indicators: probucol 200 μM weekly for 6 weeks, 3 mM glyburide hydrogel every 10 days for 10 weeks. As to the method:
In the case of mice, male (C57BL/6J) mice were used since estrogen in female mice may influence osteoarthritis progression and serve as a confounding factor. Post-traumatic osteoarthritis was induced in 12-week-old male mice by destabilization of the medial meniscus (DMM) surgery. To investigate the role of lysosomal cholesterol partitioning regulated by ABCA1 in age-related inflammation in vivo, ABCA1 modulators were administered to male mice subjected to DMM surgery, and their effects on the progression of post-traumatic osteoarthritis were observed. Male mice subjected to either DMM surgery or sham surgery were intra-articularly injected with 10 μl of probucol (200 μM) dissolved in DMSO once a week for 6 weeks, or with 10 μl of PBS-suspended hydrogel containing 3 mM glyburide (PBS:hydrogel=1:1) every 10 days for 10 weeks. After the treatment period, the mice were sacrificed.

The test system of assay [4] is mTORC1. Kind of assay: mTORC1 activity in senescent cells. Format: cell-based, human. As to the method:
as §1, with “control. […] The prepared senescent cell models were treated with probucol (10 μM) and/or glyburide (75 μM), and immunoblotting analysis was performed on lysosome immunoprecipitates (LysoIP).” for “control.”

For assay [5], the system named is mouse primary cultured chondrocytes (SEN). In words: SASP regulation in senescent mouse primary cultured chondrocytes (SEN). The assay is classed as cell-based. To be noted: probucol 10 μM, glyburide 75 μM, lovastatin 2 μM. On the procedure:
Mouse primary cultured chondrocytes were isolated from the femoral condyle and tibial plateau of 5-day-old ICR mice.
The ABCA1-deficient mouse primary chondrocyte model was prepared using siRNAs of SEQ ID NOs: 5 to 8. • ABCA1 siRNA #1: SEQ ID NO. 5 • ABCA1 siRNA #2: SEQ ID NO. 6 • ABCA1 siRNA #3: SEQ ID NO. 7 • ABCA1 siRNA #4: SEQ ID NO. 8
Senescence of chondrocytes promotes age-related musculoskeletal disorders. The correlation between cholesterol metabolism and ABCA1 was analyzed in a DNA damage-induced aging model (SEN) of mouse primary cultured chondrocytes isolated from the femoral condyles and tibial plateaus of 5-day-old ICR mice.
When ABCA1 was depleted in mouse primary cultured chondrocytes (SEN), the expression of SASP genes, including Mmp3, Mmp13 and Cxcl1, was suppressed, while the expression of Cdkn2a remained unchanged (FIG. 11B). […] Induction of cholesterol depletion inhibited the sustained activation pattern of mTORC1 (FIG. 11D), which was consistent with the results from the senescent cell model (in vitro) in Example 1. Therefore, it was confirmed that the lysosomal ABCA1 gene is a major factor in SASP regulation in vivo.

Assay [6] deals with senescence-induced cells (IMR90, BJ). Kind of assay: cholesterol measurement (Filipin staining, enzymatic measurement) in senescent cells. The assay is classed as cell-based, human. As to the method: as §1, with “control. […] The prepared senescent cell models were treated with probucol (10 μM) and/or glyburide (75 μM), and immunoblotting analysis was performed on lysosome immunoprecipitates (LysoIP).” for “control.”

The mark [7] stands for this setting: intra-articular probucol 200 μM weekly for 6 weeks.
The mark [8] stands for this setting: DNA damage-induced senescent cells (SEN) lacking ABCA1, probucol 10 μM.
[9] abbreviates: SEN and SEN (OIS), glyburide 75 μM.

T1 sequence (O95477 whole entry): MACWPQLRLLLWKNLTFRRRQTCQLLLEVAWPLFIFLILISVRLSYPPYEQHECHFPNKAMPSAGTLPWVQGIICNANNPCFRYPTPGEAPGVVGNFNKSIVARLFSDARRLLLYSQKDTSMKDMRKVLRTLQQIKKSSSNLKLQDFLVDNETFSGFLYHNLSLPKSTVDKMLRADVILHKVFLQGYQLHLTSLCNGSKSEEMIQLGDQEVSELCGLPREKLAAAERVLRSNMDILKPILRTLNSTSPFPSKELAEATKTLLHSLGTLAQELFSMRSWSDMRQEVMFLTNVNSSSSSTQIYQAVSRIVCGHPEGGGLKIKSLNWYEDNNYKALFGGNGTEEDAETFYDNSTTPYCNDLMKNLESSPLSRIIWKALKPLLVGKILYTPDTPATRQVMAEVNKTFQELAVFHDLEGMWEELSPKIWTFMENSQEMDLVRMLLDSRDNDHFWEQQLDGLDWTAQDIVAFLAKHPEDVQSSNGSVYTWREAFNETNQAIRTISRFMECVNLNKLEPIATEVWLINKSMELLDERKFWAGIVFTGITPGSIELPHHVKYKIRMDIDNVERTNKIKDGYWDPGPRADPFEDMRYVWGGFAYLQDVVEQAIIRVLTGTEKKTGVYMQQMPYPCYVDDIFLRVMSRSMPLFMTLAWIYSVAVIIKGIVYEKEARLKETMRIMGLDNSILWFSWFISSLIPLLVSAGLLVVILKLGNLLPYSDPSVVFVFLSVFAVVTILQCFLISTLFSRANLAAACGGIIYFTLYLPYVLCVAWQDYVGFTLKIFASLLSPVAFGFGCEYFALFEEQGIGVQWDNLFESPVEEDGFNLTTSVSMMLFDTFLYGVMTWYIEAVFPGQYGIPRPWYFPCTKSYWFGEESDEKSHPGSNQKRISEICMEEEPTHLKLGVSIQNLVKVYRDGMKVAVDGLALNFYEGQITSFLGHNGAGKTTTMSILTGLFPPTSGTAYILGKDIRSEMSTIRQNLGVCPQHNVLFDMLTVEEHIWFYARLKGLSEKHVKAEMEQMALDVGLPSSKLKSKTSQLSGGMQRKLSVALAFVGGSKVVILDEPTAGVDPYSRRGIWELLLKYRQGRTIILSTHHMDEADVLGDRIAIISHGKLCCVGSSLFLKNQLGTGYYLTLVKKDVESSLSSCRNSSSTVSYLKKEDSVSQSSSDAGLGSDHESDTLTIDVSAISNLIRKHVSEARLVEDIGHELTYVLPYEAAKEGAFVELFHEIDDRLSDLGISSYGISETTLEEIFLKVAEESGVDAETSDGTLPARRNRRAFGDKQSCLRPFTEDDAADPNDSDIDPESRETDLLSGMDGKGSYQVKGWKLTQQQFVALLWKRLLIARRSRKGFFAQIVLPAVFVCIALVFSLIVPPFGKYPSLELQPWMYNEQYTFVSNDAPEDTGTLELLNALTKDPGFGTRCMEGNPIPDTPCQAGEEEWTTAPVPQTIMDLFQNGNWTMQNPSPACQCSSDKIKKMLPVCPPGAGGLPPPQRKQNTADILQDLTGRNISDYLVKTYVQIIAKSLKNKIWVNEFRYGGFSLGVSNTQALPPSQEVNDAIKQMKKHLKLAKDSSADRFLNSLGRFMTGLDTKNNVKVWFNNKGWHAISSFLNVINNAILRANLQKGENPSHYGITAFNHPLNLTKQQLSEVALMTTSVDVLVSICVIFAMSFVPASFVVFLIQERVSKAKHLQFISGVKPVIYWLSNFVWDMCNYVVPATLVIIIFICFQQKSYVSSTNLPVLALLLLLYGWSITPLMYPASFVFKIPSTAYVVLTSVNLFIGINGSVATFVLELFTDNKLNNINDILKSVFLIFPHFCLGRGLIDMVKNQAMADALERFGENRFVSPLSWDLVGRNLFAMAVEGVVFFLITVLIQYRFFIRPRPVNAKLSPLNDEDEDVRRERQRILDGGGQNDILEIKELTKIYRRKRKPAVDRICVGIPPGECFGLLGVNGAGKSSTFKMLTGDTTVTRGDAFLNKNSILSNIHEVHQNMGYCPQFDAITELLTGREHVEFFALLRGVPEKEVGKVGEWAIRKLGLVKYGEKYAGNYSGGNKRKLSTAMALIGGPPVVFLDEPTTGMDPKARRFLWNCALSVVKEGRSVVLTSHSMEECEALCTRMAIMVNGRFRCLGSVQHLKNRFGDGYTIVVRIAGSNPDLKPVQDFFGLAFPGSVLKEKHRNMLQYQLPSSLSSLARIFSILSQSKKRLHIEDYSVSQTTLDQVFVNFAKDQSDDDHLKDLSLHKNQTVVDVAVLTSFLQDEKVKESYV

As to `CC(C)CCC[C@@H](C)[C@H]1CC[C@H]2[C@@H]3CC=C4C[C@@H](O)CC[C@]4(C)[C@H]3CC[C@]12C` [cholesterol], in assay [1], the “expression of CDKN2A or CDKN1A” value was “little effect” and the “expression of SASP genes (IL1A, IL1B)” value is “significantly increased”.

As for `CC(C)(Sc1cc(C(C)(C)C)c(O)c(C(C)(C)C)c1)Sc1cc(C(C)(C)C)c(O)c(C(C)(C)C)c1` [probucol], the “expression of lysosomal ABCA1 (LysoIP immunoblot)” value in assay [2] is “further enhanced”. Also, in assay [3] (setting [7]), the “Osteoarthritis Research Society International (OARSI) grades” value is on record as “higher”; the “dynamic and static weight-bearing capacity” value is on record as “impaired”; the hindlimb withdrawal threshold result is “reduced”. For the same compound, in assay [3], the “osteoarthritis progression / cartilage destruction in knee joints (Safranin O staining)” value was “worsened”; the “expression levels of SASP factors (IL6, MMP13) and senescence markers (p16, nuclear HMGB1)” value is “increased”; the “osteoarthritis-related pain symptoms / pain indicators” value was “worsened”. The “SASP (IL1A, IL1B) activation” value in assay [1] (setting [8]) is recorded as “not activated”. Besides, the SASP activity entry in assay [1] (oncogene-induced senescent cells (SEN (OIS)), probucol 10 μM) is on record as “increased”. For the same compound, the SASP activity entry in assay [1] (senescence-induced cells (SEN), probucol treatment) was “increased”. For the same compound, the “expression of CDKN2A or CDKN1A” value in assay [1] is listed as “minimal effect”. Further, the mTORC1 activation entry in assay [4] (setting [8]) is on record as “not activated”. For the same compound, in assay [4] (senescence-induced cells, probucol treatment), the mTORC1 activity entry is reported as “activation”. Further, the “SASP factors (Mmp3, Mmp13, Cxcl1)” value in assay [5] is recorded as “upregulated”. Also, the “cholesterol accumulation (lysosomal)” value in assay [6] (DNA damage-induced senescent cells (SEN), probucol 10 μM) is recorded as “promoted”.

On to `COc1ccc(Cl)cc1C(=O)NCCc1ccc(S(=O)(=O)NC(=O)NC2CCCCC2)cc1` [glyburide], for which, in assay [2], the “expression of lysosomal ABCA1 (LysoIP immunoblot)” value was “decrease”. In assay [3], the “osteoarthritis progression / cartilage destruction in knee joints (Safranin O staining)” value is given as “alleviated”; the “expression levels of SASP factors (IL6, MMP13) and senescence markers (p16, nuclear HMGB1)” value is “decreased”; the “osteoarthritis-related pain symptoms / pain indicators” value is given as “amelioration”. The SASP activity entry in assay [1] (setting [9]) is on record as “inhibited”. Moreover, the “SASP activation / SASP factor expression induced by probucol” value in assay [1] (senescence-induced cells treated with probucol plus test substance) was “completely suppressed”. In assay [5], the “SASP factors (Mmp3, Mmp13, Cxcl1)” value is recorded as “suppressed”. Moreover, the lysosomal cholesterol accumulation entry in assay [6] (setting [9]) is recorded as “inhibited”.

As for methyl-β-cyclodextrin [MBCD], the “expression of SASP genes (IL1A, IL1B)” value in assay [1] is recorded as “reduced”. The cholesterol levels entry in assay [6] (senescence-induced cells, cholesterol-depleted (MBCD+) conditions) is “decreased”.

With `CC[C@H](C)C(=O)O[C@H]1C[C@@H](C)C=C2C=C[C@H](C)[C@H](CC[C@@H]3C[C@@H](O)CC(=O)O3)[C@H]21` [lovastatin], in assay [1], the “expression of CDKN2A or CDKN1A” value is recorded as “without affecting” and the “expression of SASP genes (IL1A, IL1B)” value is recorded as “suppressed”. Besides, in assay [1] (senescent cells vs normal proliferating cells (PRO)), the “expression of the cholesterol transporter gene ABCA1” value was “also suppressed”. The “SASP factors (Mmp3, Mmp13, Cxcl1)” value in assay [5] is “suppressed”.
